For three molecules, EC50, Emax and Ki results are on record in patent publication US9862726B2, “Opioid receptor modulating oxabicyclo[2.2.2]octane morphinans” (PURDUE PHARMA L.P., priority 2013, dated 2018).

As a reminder, the EC50 is the concentration needed to bring the measured effect to its halfway point. Lower therefore signals an effect from little substance. In general, Emax refers to the greatest response seen or fitted, relative to the assay's reference. The Ki is a dissociation constant, usually derived from enzyme kinetics or from competition with a known ligand.

Test [1] concerns the target T1, κ-opioid receptor (Homo sapiens (Human), UniProt P41145). Nature of the test: κ-opioid receptor functional assay (U-2 OS cells). Type of test: biochemical. To be noted: for Emax: U-2 OS cells, relative to U69,593.
In test [2] the target is T1, κ-opioid receptor. Nature of the test: κ-opioid receptor [35S]GTPγS functional assay (HEK-293 cells). It is filed as biochemical. To be noted: for Emax: HEK-293 cells, relative to U69,593. The method, then:
Functional [^35S]GTPγS binding assays were conducted as follows. κ opioid receptor membrane solution was prepared by sequentially adding final concentrations of 0.026 μg/μl κ membrane protein (in-house), 10 μg/mL saponin, 3 μM GDP and 0.20 nM [^35S]GTPγS to binding buffer (100 mM NaCl, 10 mM MgCl2, 20 mM HEPES, pH 7.4) on ice. The prepared membrane solution (190 μl/well) was transferred to 96-shallow well polypropylene plates containing 10 μl of 20× concentrated stock solutions of agonist prepared in DMSO. Plates were incubated for 30 min at a temperature of about 25° C. with shaking. Reactions were terminated by rapid filtration onto 96-well Unifilter GF/B filter plates (Perkin Elmer, Shelton, Conn.) using a 96-well tissue harvester (Packard) and followed by three filtration washes with 200 μl ice-cold binding buffer (10 mM NaH2PO4, 10 mM Na2HPO4, pH 7.4). Filter plates were subsequently dried at 50° C. for 2-3 hours. Fifty μl/well scintillation cocktail (Perkin Elmer, Shelton, Conn.) was added and plates were counted in a Packard Top-Count for 1 min/well.
κ GTP EC50 is the concentration of a compound providing 50% of the maximal response for the compound at a κ receptor.
κ GTP Emax (%) is the maximal effect elicited by a compound relative to the effect elicited by U69,593.
In TABLE 4, activity response of certain Compounds of the Invention to the μ- and κ-opioid receptors was determined as described above for functional assays using HEK-293 cells.
(In general: GTPγS resists hydrolysis and so accumulates on activated G proteins.)

Test [3] concerns the target recombinant human kappa opioid receptor (κ) (Homo sapiens (Human), UniProt P41145). Nature of the test: κ-opioid receptor radioligand dose-displacement binding assay (HEK-293 cells).
The target of test [4] is T2, μ-opioid receptor (Homo sapiens (Human), UniProt P35372). The experiment in a line: μ-opioid receptor radioligand dose-displacement binding assay (HEK-293 cells).
Test [5] concerns the target T2, μ-opioid receptor. Nature of the test: μ-opioid receptor [35S]GTPγS functional assay (HEK-293 cells). To be noted: for Emax: HEK-293 cells, relative to DAMGO. It is filed as biochemical.
The target of test [6] is T2, μ-opioid receptor. Nature of the test: μ-opioid receptor functional assay (U-2 OS cells). Type of test: biochemical. To be noted: for Emax: U-2 OS cells, relative to DAMGO.

`N[C@]12CC[C@@]3(OC1)[C@H]1Cc4ccc(O)cc4[C@@]3(CCN1CC1CC1)C2` [Compound 17, (4bR,6S,8aS,9R)-6-amino-11-(cyclopropylmethyl)-5,6,7,8,9,10-hexahydro-9,4b-(epiminoethano)-8a,6-(epoxymethano)phenanthren-3-ol]: the concentration giving a half-maximal response (EC50) is 0.3 ± 0.032 nM at κ-opioid receptor [1], 0.48 ± 0.02 nM at κ-opioid receptor [2], above 20000 nM at μ-opioid receptor [5] and 0.65 ± 0.078 nM at μ-opioid receptor [6]. The Emax on κ-opioid receptor [1] was 106 ± 6.84%; on κ-opioid receptor [2], 75 ± 5.03%; on μ-opioid receptor [5], 0%; on μ-opioid receptor [6], 77 ± 1%. In addition, the inhibition constant Ki is 0.096 ± 0.026 nM in test [3] and 0.79 ± 0.19 nM on μ-opioid receptor [4].
For the molecule `COc1ccc2c(c1)[C@]13CCN(CC4CC4)[C@H](C2)[C@]12CC[C@@](NC(=O)C(C)(C)C)(CO2)C3` [Compound 21, N-((4bR,6S,8aS,9R)-11-(cyclopropylmethyl)-3-methoxy-5,6,7,8,9,10-hexahydro-9,4b-(epiminoethano)-8a,6-(epoxymethano)phenanthren-6-yl)pivalamide], the EC50 on κ-opioid receptor [1] is 1.12 ± 0.056 nM; on κ-opioid receptor [2], 3.25 ± 0.37 nM; at μ-opioid receptor [5], 359 ± 128 nM; at μ-opioid receptor [6] it was 86.8 ± 2.57 nM. Moreover, the Emax on κ-opioid receptor [1] came out at 111 ± 3.28%; on κ-opioid receptor [2], 97.3 ± 1.33%; at μ-opioid receptor [5], 35 ± 4.04%; at μ-opioid receptor [6], 92.7 ± 2.91%. The inhibitory constant (Ki) came out at 0.33 ± 0.023 nM in test [3] and 265 ± 77.5 nM on μ-opioid receptor [4].
In the case of `O=C(N[C@]12CC[C@@]3(OC1)[C@H]1Cc4ccc(O)cc4[C@@]3(CCN1CC1CC1)C2)c1ccccc1` [Compound 27, N-((4bR,6S,8aS,9R)-11-(cyclopropylmethyl)-3-hydroxy-5,6,7,8,9,10-hexahydro-9,4b-(epiminoethano)-8a,6-(epoxymethano)phenanthren-6-yl)benzamide], the EC50 on κ-opioid receptor [1] was determined as 0.028 nM; at κ-opioid receptor [2], 0.14 nM; on μ-opioid receptor [5], 0.58 ± 0.18 nM; on μ-opioid receptor [6], 0.037 ± 0.01 nM. The Emax at κ-opioid receptor [1] stood at 93.3 ± 3.84%; at κ-opioid receptor [2] it was 94.2 ± 2.12%; at μ-opioid receptor [5], 34.7 ± 1.45%; at μ-opioid receptor [6], 112 ± 3.51%. Also, the values for the inhibition constant Ki (in test [3]; on μ-opioid receptor [4]) were 0.062 ± 0.012 nM and 0.019 ± 0.01 nM, respectively.
